Experimental data published in US4889860A (Nova Pharmaceutical Corporation, priority 1987, dated 1989).
Read-outs that look alike come from different tables or passages of the source.

Key:
[1] = test system: bombesin-induced scratching; assay: bombesin-induced scratching test; assay type: in vivo; details: sc; subcutaneous; read-out: mean A50, bombesin-induced scratching
Description: (Cowan A. Trendsin Pharmacology Science, 7:69-72, 1986) With this test the intracerebroventricular administration of bombesin produces a characteristic scratching response.

mu-type opioid receptor = biological target: T1, mu-type opioid receptor (Rattus norvegicus, UniProt P33535); assay: inhibition of specific [^3 H] DAGO binding to rat forebrain membranes
T1 construct: using rat forebrain membranes; from tissue; host or cells: rat forebrain membranes
T1 sequence (P33535 whole entry): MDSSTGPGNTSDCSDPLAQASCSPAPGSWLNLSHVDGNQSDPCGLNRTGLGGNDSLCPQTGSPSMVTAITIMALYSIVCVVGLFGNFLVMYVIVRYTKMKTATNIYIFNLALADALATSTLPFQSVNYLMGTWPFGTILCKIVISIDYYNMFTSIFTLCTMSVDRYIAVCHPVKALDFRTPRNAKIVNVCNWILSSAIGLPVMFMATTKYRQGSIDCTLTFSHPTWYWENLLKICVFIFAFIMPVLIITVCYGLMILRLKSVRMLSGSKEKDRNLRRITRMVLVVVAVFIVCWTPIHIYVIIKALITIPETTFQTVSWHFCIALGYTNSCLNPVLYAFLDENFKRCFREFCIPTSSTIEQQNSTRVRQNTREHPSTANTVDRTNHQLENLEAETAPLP
Method: (§1) The interaction of some of the novel compounds with mu and delta-type opioid receptors present in brain membranes was examined in vitro. […] DAGO (mu-type receptor) or [^3 H] DADLE (delta-type receptor) was determined using rat forebrain membranes. Computer assisted analysis (EBDA) was used to determine apparent Ki values for the various compounds.
(§2) Values represent the MEAN±S.E.M. of the Ki(nM) for each compound to inhibit specific binding of the indicated ligand to rat brain membranes. The values are from two-five separate experiments and were calculated according to the method of Cheng and Prusoff [Biochem. Pharmacol. 1973, 22, 3099-3108] together with the EBDA Program. Numbers in parentheses are the mean Hill coefficients for each compound to inhibit ligand binding.
as §2, with “two.div.seven” for “two-five”, “Prusoff” for “Prusoff [Biochem. Pharmacol. 1973, 22, 3099-3108]”, “program.” for “Program.”, “binding. N.D.=not determined” for “binding.”
(§3) The interaction of some of the novel compounds with mu, delta and kappa - type opioid receptors present in brain membranes was examined in vitro. […] DAGO (mu-type receptor), or [^3 H] DADLE (Delta-type receptor) using rat forebrain membranes and [^3 H] EKC (kappa-type receptor) using guiniea pig cerebellum membrane was determined. Computer assisted analysis (EBDA) was used to determine apparent Ki values for the various compounds.
(§4) The values represent the MEAN±S.E.M. of the Ki(nM) for each compound to inhibit specific binding of the indicated ligand. Each value represents the mean of three individual experiments performed on separate occasions.

[2] = deaths of rats during tail flick experiment at high doses; details: S.C.
Description: (§5) A 15 sec. cut-off latency was used to prevent tissue damage.

[3] = biological target: delta-type opioid receptor (Rattus norvegicus, UniProt P33533); assay: inhibition of specific [^3 H] DADLE binding to rat forebrain membranes
Chain of delta-type opioid receptor (P33533 whole entry): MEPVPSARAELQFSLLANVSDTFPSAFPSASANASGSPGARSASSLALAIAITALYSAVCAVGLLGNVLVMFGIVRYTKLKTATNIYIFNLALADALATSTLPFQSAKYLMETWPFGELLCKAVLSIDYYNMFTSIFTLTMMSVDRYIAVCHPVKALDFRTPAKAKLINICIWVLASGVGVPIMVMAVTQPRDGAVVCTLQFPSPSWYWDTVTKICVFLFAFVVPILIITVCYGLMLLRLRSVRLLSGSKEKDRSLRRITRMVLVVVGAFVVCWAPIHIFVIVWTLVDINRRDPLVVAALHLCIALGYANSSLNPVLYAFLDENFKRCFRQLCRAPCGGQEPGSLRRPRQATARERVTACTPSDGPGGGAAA
Method: as §1, §2
as §2, with “two.div.seven” for “two-five”, “Prusoff” for “Prusoff [Biochem. Pharmacol. 1973, 22, 3099-3108]”, “program.” for “Program.”, “binding. N.D.=not determined” for “binding.”
as §3, §4

tail flick response = assay: radiant heat tail flick analgesia in rats; assay type: in vivo, rat; details: for ED50: Rattus norvegicus; for dose producing approximately equal analgesia: tail flick, through 3.5 hr
Method: The analgesic properties of the compounds prepared in accordance with Examples III and IV were evaluated in rats using the radiant heat and tail flick paradigm. […] Flick latencies in FIGS. 11-13 were determined at 30 minute intervals through 3.5 h and the data was expressed as a percentage of the maximum possible effect (% MPE). A 15 sec. cut-off latency was used to minimize tissue damage. The values shown are the mean values for 6 rats.
as §5
The analgesic properties of compounds XXII and XXIII were evaluated in rats using the writhing assay and tail flick paradigm. […] The writhing assay which uses a chemical stimulus to produce pain, is believed to be more sensitive to kappa agonist activity than other measures of analgesia which uses a heat stimulus (Dykstra, L.A. Behavioral Pharmacology: The Current Status, N.Y.: Allan R. Liss. Inc. 1985).

writhing response = assay: animal or person; assay type: in vivo, mouse
[4] = biological target: T2, kappa-type opioid receptor (Cavia porcellus, UniProt P41144); assay: inhibition of specific [^3 H] EKC binding to guinea pig cerebellum membrane; details: than other compounds or naltrexone
T2 construct: using guiniea pig cerebellum membrane; from tissue; host or cells: guinea pig cerebellum membranes
T2 sequence (P41144 whole entry): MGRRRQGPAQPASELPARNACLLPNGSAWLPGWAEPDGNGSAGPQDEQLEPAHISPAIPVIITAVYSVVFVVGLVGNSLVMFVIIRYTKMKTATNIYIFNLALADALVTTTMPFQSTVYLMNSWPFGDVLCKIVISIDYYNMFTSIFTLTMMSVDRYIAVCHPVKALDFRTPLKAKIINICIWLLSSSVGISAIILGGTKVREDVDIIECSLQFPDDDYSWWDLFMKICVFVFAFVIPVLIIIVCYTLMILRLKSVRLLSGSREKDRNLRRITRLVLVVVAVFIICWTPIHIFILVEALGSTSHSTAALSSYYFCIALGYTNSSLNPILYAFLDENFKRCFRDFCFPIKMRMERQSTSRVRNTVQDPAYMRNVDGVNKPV
Method: as §3, §4

[5] = conditioned taste aversion in rats; assay type: in vivo, rat; details: I.P., day 10
Method: The ability of a compound to inhibit feeding may not be related to its anorectic properties, but rather to the ability of that compound to produce a conditioned taste aversion. This possibility was tested in the following experiment. Animals were adapted to water deprivation by restricting their access to water to a single 30 min presentation occurring at the same time every day. Baseline water intakes were determined for 7 days until intakes had stabilized, and animals were assigned to treatment groups based on their intakes on the final baseline day. On the following day (day 8), all rats received a bottle of condensed milk (diluted 2:1 water:milk) in place of the water, and intakes were recorded for 30 min. Fifteen minutes after the milk was removed, rats were administered an I.P. injection of vehicles, LiCl (299.6 μmol/kg) or the compound of Example XII (1.15, 2.31, 11.55 and 23.09 μmol/kg). The compound of Example XII was dissolved in 0.3% acetic acid in a volume of 4 ml/kg. LiCl was dissolved in saline, and serves as a positive control, since it is a compound that reliably produces a strong conditioned taste aversion. This procedure was repeated on day 9. On day 10, all rats were given a two-bottle choice of water or the milk:water solution, and intakes were recorded for 30 min. Data for each experiment were analyzed by one-way ANOVA, and post-hoc comparisons were performed using Dunnett's test.
The effects of the compound of Example XII in producing a conditioned taste aversion are illustrated in FIGS. 28 and 29. In FIGS. 28 and 29 the data represent the mean ±SEM for each group. **=p<0.01 (Dunnett's test). Abbreviations: SAL, saline; AA, 0.3% acetic acid in distilled water; LiCl, lithium chloride. Doses of the compound of Example XII for each group are expressed in μmole/kg. The number of animals per group: SAL, 4: AA, LiCl and each dose of Example XII, 5. FIG. 28: Total milk intake in ml on day 10. FIG. 29: Preference ratio on day 10.

[6] = 1 and 2 mg/kg; cited from earlier work
[7] = Simone et al.; cited from earlier work
[8] = Ki, inhibition of specific [^3 H] DAGO binding, Tables 1 and 2, rat brain membranes, MEAN±S.E.M.
[9] = read-out: Ki, inhibition of specific [^3 H] DADLE binding, Tables 1 and 2, rat brain membranes, MEAN±S.E.M.
[10] = sc, 0.5 h, S.C., 30 min, read-out: ED50, tail flick analgesia

Oc1ccc2c3c1O[C@H]1C(=NOCCCc4ccccc4)CC[C@@]4(O)[C@@H](C2)N(CC2CC2)CC[C@]314 [6[3-phenylpropyl] oximino naltrexone]
ED50 [1]: 0.08 mg/kg

CN1CC[C@]23c4c5ccc(O)c4O[C@H]2C(=NOCc2ccccc2)CC[C@@]3(O)[C@H]1C5 [Example III, 6-Benzyloximino-17-methyl-4,5 α-epoxy-3, 14-dihydroxymorphinan]
Ki (mu-type opioid receptor; [8]): 1.58 ± 0.07 nM | number of deaths out of six rats ([2]; 8.85 μmole/kg): 1 | number of deaths out of six rats ([2]; 17.7 μmole/kg): 3 | number of deaths out of six rats ([2]; 26.6 μmole/kg): 3 | Ki [3, 9]: 2.8 ± 1.6 nM | ED50 (tail flick response; [10]): 0.64 µmol/kg | dose producing approximately equal analgesia (tail flick response; S.C.): ~2.21 µmol/kg

CN1CC[C@]23c4c5ccc(O)c4O[C@H]2C(=NOc2ccccc2)CC[C@@]3(O)[C@H]1C5 [Example IV, 6-Phenyloximino-17-methyl-4,5 α-epoxy-3, 14-dihydroxymorphinan]
Ki (mu-type opioid receptor; [8]): 0.84 ± 0.09 nM | number of deaths out of six rats ([2]; 4.48 μmole/kg): 1 | number of deaths out of six rats ([2]; 8.95 μmole/kg): 1 | number of deaths out of six rats ([2]; 13.4 μmole/kg): 2 | Ki [3, 9]: 0.91 ± 0.1 nM | ED50 (tail flick response; [10]): 0.18 µmol/kg | dose producing approximately equal analgesia (tail flick response; S.C.): ~1.12 µmol/kg

Oc1ccc2c3c1O[C@H]1C(=NOCCCc4ccccc4)CC[C@@]4(O)[C@@H](C2)N(CC2CC2)CC[C@]314 [Example XXIII]
Ki (mu-type opioid receptor; read-out: (Ki) nM, μ receptor (Rat Forebrain), Table 6, [^3 H] DAGO, mean of three experiments): 0.32 nM | ED50 (writhing response; Mus musculus, Table 7, read-out: ED50, Acetic Acid Induced Writhing in the Mouse): 0.02 mg/kg | potency versus morphine to antagonize writhing response (writhing response; mouse, in vivo, ip): more potent than morphine to antagonize the writhing response | kappa selectivity and agonist activity (writhing response; writhing and tail flick): selective to kappa receptors and possess kappa agonist activity | fold more potent to inhibit specific [3H]EKC [4]: 100 fold | Ki ([3]; read-out: (Ki) nM, δ receptor (Rat Forebrain), Table 6, [^3 H] DADLE, mean of three experiments): 0.44 nM | ED50 (tail flick response; Table 7, read-out: ED50, Antagonism of the Tail-Flick Response in the Rat): 1.84 mg/kg | antagonism of tail-flick response to heat (tail flick response; rat): effectively antagonized the tail-flick response to a heat stimulus in the rat

[Cl-].[Li+] [LiCl, lithium chloride, reference compound]
conditioned taste aversion (milk intake, preference ratio) [5]: significant decreases in milk intake and in the preference ratio were evident only for LiCl

COC(=O)CON=C1CC[C@@]2(O)[C@H]3Cc4ccc(OC)c5c4[C@@]2(CCN3CC2CC2)[C@H]1O5 [N-cyclopropylmethyl-nor-14-hydroxydihydrocodeinone-6-carboxymethyl methyl ester]
suppression of symptoms in morphine dependent monkeys [6]: partial suppression of symptoms was obtained

C=CCN1CC[C@]23c4c5ccc(O)c4O[C@H]2/C(=N/N=C2\CC[C@@]4(O)[C@H]6Cc7ccc(O)c8c7[C@@]4(CCN6CC=C)[C@H]2O8)CC[C@@]3(O)[C@H]1C5 [naloxonazine]
inhibition of overnight feeding [7]: inhibition of overnight feeding
